# In the supplement of paper PMC10307832:
# Experiments:
# Test in all cases: relative viability (nuclei count vs DMSO), 5 days (fraction); higher = more cells survive
# [1] = compound: CCN(CC)CCNC(=O)c1c(C)[nH]c(/C=C2\C(=O)Nc3ccc(F)cc32)c1C [Sunitinib] + C[C@@H](Oc1cc(-c2cnn(C3CCNCC3)c2)cnc1N)c1c(Cl)ccc(F)c1Cl [Crizotinib] (partner 1 µM)
# Outline: (§1)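 Dosing by pin tool came one day after lung cancer cell lines were seeded in 1536-well plates, using either one drug or a fixed anchor-drug dose plus five library-drug doses (not always all listed) in √10 steps. After 5 days, nuclei were counted on 4× images. Relative viability is treated-well nuclei count divided by vehicle-well nuclei count, and values are medians of duplicate plates.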
# [2] = compound: CCN(CC)CCNC(=O)c1c(C)[nH]c(/C=C2\C(=O)Nc3ccc(F)cc32)c1C [Sunitinib] + CS(=O)(=O)CCNCc1ccc(-c2ccc3ncnc(Nc4ccc(OCc5cccc(F)c5)c(Cl)c4)c3c2)o1 [Lapatinib] (partner 2 µM)
# Outline: as §1
# [3] = compound: CCN(CC)CCNC(=O)c1c(C)[nH]c(/C=C2\C(=O)Nc3ccc(F)cc32)c1C [Sunitinib] + Nc1ncn([C@H]2C[C@H](O)[C@@H](CO)O2)c(=O)n1 [Decitabine] (partner 2 µM)
# Outline: as §1
# [4] = compound: CCN(CC)CCNC(=O)c1c(C)[nH]c(/C=C2\C(=O)Nc3ccc(F)cc32)c1C [Sunitinib] + Cc1cc(Nc2cc(N3CCN(C)CC3)nc(Sc3ccc(NC(=O)C4CC4)cc3)n2)n[nH]1 [Tozasertib] (partner 0.1 µM)
# Outline: as §1
Cell Line,relative viability ([1]; first compound 0.02 µM),relative viability ([1]; first compound 0.06325 µM),relative viability ([1]; first compound 0.6325 µM),relative viability ([1]; first compound 2 µM),relative viability ([2]; first compound 0.02 µM),relative viability ([2]; first compound 0.2 µM),relative viability ([2]; first compound 0.6325 µM),relative viability ([2]; first compound 2 µM),relative viability ([3]; first compound 0.02 µM),relative viability ([3]; first compound 0.06325 µM),relative viability ([3]; first compound 0.2 µM),relative viability ([3]; first compound 0.6325 µM),relative viability ([4]; first compound 0.02 µM),relative viability ([4]; first compound 0.06325 µM),relative viability ([4]; first compound 0.2 µM),relative viability ([4]; first compound 0.6325 µM),relative viability ([4]; first compound 2 µM),relative viability ([1]; first compound 0.2 µM),relative viability ([2]; first compound 0.06325 µM),relative viability ([3]; first compound 2 µM)
NCI-H2347,0.665,0.795,0.731,0.822,0.873,1.17,1.03,0.95,0.562,0.617,0.642,0.66,0.599,0.481,0.59,0.607,0.523,–,–,–
NCI-H2405,0.803,0.868,0.862,0.889,1.03,1.18,1.18,–,0.811,0.8,0.761,0.754,0.757,0.794,0.811,0.761,0.809,0.955,1.21,0.761
NCI-H3122,0.273,0.247,0.241,0.297,0.907,1.04,–,0.992,0.412,0.439,0.542,0.364,0.429,0.475,0.539,0.433,0.567,0.249,0.985,0.453
PC-3 [JPC-3],1.03,0.943,1.02,0.984,0.456,0.494,0.464,0.5,0.89,0.788,–,0.79,0.912,0.909,0.954,0.936,0.867,1.01,0.459,0.764
PC-14,–,0.863,0.921,0.816,0.301,0.369,0.33,0.314,0.2,0.23,0.239,0.23,0.53,0.589,0.583,0.578,0.523,1.08,0.332,0.252
